Patent publication US9187491B2, “Gambogenic acid derivatives, preparation method and application thereof” (Ninth People's Hospital, School Medicine Shanghai Jiao Tong …, priority 2012, dated 2015)
Read-outs that look alike come from different tables or passages of the source.

Experiments:
[1] = tested on: Human oral squamous cells carcinoma Cal27; test: growth inhibition of tumor cell Cal27 (SRB staining); format: cell-based; details: for efficacy: Cal27, assessment of results; for inhibition at 100 µM / inhibition at 10 µM / inhibition at 1 µM / inhibition at 0.1 µM / inhibition at 0.01 µM: Homo sapiens, read-out: growth inhibition rate
Description: (§1) The compounds synthesized from the present invention were studied by sulforhodamine B protein staining (sulfothodalnine B, SRB) and miceroculture tetrazolinetetrozohuln (MTT) colorimetric method respectively for in vitro anti-tumor activity (Cancer Res., 1988, 48 (3): 589).
(§2) The concentration gradient of the test compounds of the present invention is 10^−4M, 10^−5M, 10^−6M, 10^−7M, 10^−8M, and the test compounds are 6-methoxy methyl ester gambogenic acid, ethyl ester gambogenic acid, 6-ethoxy ethyl ester gambogenic acid, 6-acyl gambogenic acid, piperidine gambogenic acid, diethylamide gambogenic acyl, morpholine gambogenic acid, and 12-hydroxy gambogenic acid, and 8,9-epoxy gambogenic acid. The test compounds and positive control gambogenic acid were diluted with dimethyl sulfoxide. Inhibition rate(%)=[(control group OD value−administered group OD value)/control group OD value]×100%
Human oral squamous cells carcinoma Cal27 were cultured in DMEM containing 10% fetal bovine serum (FBS), the cells with long-growth phase were forming suspension and culturing in 96-well plates. 10 μl test compounds of different concentrations as experimental group were added into each well of the 96-well plates. Blank control group received an equal volume containing the highest concentration of solvent (ie, 10^−4M dimethyl sulfoxide) in DMEM. After incubation at 37° C. under 5% carbon dioxide conditions for 72 hours, the cells were fixed with trichloroacetic acid, and each well was added with 100 μl SRB solution, unbound SRB was washed away, and then OD values were measured at 550 nm by an automatic plate reader spectrophotometer. A tumor cell group without drugs is a blank control group.

[2] = tested on: Human breast cancer cells MCF-7; test: growth inhibition of tumor cell MCF-7 (MTT colorimetric method); format: cell-based; details: for efficacy: MCF-7, assessment of results; for inhibition at 100 µM / inhibition at 10 µM / inhibition at 1 µM / inhibition at 0.1 µM / inhibition at 0.01 µM: Homo sapiens, read-out: growth inhibition rate
Description: as §1, §2
Human breast cancer cells MCF-7 were cultured in DMEM containing 10% FBS, the cell with long-growth phase was formed into suspension and cultured in 96-well plates. The test compounds as experimental group with different concentrations were added into each well of the 96-well plates. Blank control group received an equal volume containing the highest concentration of solvent (ie, 10^−4M dimethyl sulfoxide) in DMEM. After incubation at 37° C. under 5% carbon dioxide conditions for 72 hours, each well was added with MTT to 1 mg/ml final concentration for incubation for 4 hours. The supernatant solution in each well was aspirated and added with 200 μl DMSO to dissolve crystals, and then OD values were measured at 490 nm by an automatic plate reader spectrophotometer. A tumor cell group without drugs is a blank control group.

mouse leukemia L1210 = details: compared with garcinia acid; cited from earlier work
[3] = CAL-27, Cal27, 10^−4M, 72 hours, SRB
[4] = CAL-27, Cal27, 10^−5M, 72 hours, SRB
[5] = CAL-27, Cal27, 10^−6M, 72 hours, SRB
[6] = CAL-27, Cal27, 10^−7M, 72 hours, SRB
[7] = CAL-27, Cal27, 10^−8M, 72 hours, SRB
[8] = MCF7, MCF-7, 10^−4M, 72 hours, MTT
[9] = MCF7, MCF-7, 10^−5M, 72 hours, MTT
[10] = MCF7, MCF-7, 10^−6M, 72 hours, MTT
[11] = MCF7, MCF-7, 10^−7M, 72 hours, MTT
[12] = MCF7, MCF-7, 10^−8M, 72 hours, MTT

| Molecule | growth inhibition rate ([1]; Cal27, 10^−4M, 72 hours, SRB) [%] | growth inhibition rate ([1]; Cal27, 10^−5M, 72 hours, SRB) [%] | growth inhibition rate ([1]; Cal27, 10^−6M, 72 hours, SRB) [%] | growth inhibition rate ([1]; Cal27, 10^−7M, 72 hours, SRB) [%] | growth inhibition rate ([1]; Cal27, 10^−8M, 72 hours, SRB) [%] | efficacy [1] | growth inhibition rate ([2]; MCF-7, 10^−4M, 72 hours, MTT) [%] | growth inhibition rate ([2]; MCF-7, 10^−5M, 72 hours, MTT) [%] | growth inhibition rate ([2]; MCF-7, 10^−6M, 72 hours, MTT) [%] | growth inhibition rate ([2]; MCF-7, 10^−7M, 72 hours, MTT) [%] | growth inhibition rate ([2]; MCF-7, 10^−8M, 72 hours, MTT) [%] | efficacy [2] | further results |
| --- | --- | --- | --- | --- | --- | --- | --- | --- | --- | --- | --- | --- | --- |
| 6-acyl gambogenic acid | 100 | 100 | 96 | 0 | 0 | potent (Potent: 10^−6M inhibition rate≧75% or 10^−7M inhibition rate>50%) | 100 | 100 | 83 | 0 | 0 | potent (Potent: 10^−6M inhibition rate≧75% or 10^−7M inhibition rate>50%) | – |
| CCOC(=O)/C(C)=C\CC12OC(C)(C)C3CC(C=C4C(=O)c5c(OCC)c(C/C=C(\C)CCC=C(C)C)c(O)c(CC=C(C)C)c5OC431)C2=O (stereo not shown) [6-ethoxy ethyl ester gambogenic acid, 6-ethoxyl gambogenic acid ethyl ester] | 100 | 100 | 94 | 0 | 0 | potent (Potent: 10^−6M inhibition rate≧75% or 10^−7M inhibition rate>50%) | 100 | 100 | 86 | 0 | 0 | potent (Potent: 10^−6M inhibition rate≧75% or 10^−7M inhibition rate>50%) | – |
| COC(=O)/C(C)=C\CC12OC(C)(C)C3CC(C=C4C(=O)c5c(OC)c(C/C=C(\C)CCC=C(C)C)c(O)c(CC=C(C)C)c5OC431)C2=O (stereo not shown) [6-methoxy methyl ester gambogenic acid] | 100 | 100 | 100 | 0 | 0 | potent (Potent: 10^−6M inhibition rate≧75% or 10^−7M inhibition rate>50%) | 100 | 100 | 80 | 0 | 0 | potent (Potent: 10^−6M inhibition rate≧75% or 10^−7M inhibition rate>50%) | – |
| CC(C)=CCC/C(C)=C/Cc1c(O)c(CC=C(C)C)c2c(c1O)C(=O)C13OC1C1CC4C(C)(C)OC(C/C=C(\C)C(=O)O)(CC1=O)C43O2 (stereo not shown) [8,9-epoxy gambogenic acid] | – | – | – | – | – | potent (Potent: 10^−6M inhibition rate≧75% or 10^−7M inhibition rate>50%) | – | – | – | – | – | potent (Potent: 10^−6M inhibition rate≧75% or 10^−7M inhibition rate>50%) | inhibition at 100 µM [1, 3]: 100%; inhibition at 10 µM [1, 4]: 100%; inhibition at 1 µM [1, 5]: 100%; inhibition at 0.1 µM [1, 6]: 0%; inhibition at 0.01 µM [1, 7]: 0%; inhibition at 100 µM [2, 8]: 100%; inhibition at 10 µM [2, 9]: 100%; inhibition at 1 µM [2, 10]: 80%; inhibition at 0.1 µM [2, 11]: 0%; inhibition at 0.01 µM [2, 12]: 0% |
| CC(C)=CCC/C(C)=C/Cc1c(O)c(CC=C(C)C)c2c(c1O)C(=O)C1=CC3CC4C(C)(C)OC(C/C=C(\C)C(=O)O)(CC3O)C14O2 (stereo not shown) [12-hydroxy gambogenic acid] | – | – | – | – | – | potent (Potent: 10^−6M inhibition rate≧75% or 10^−7M inhibition rate>50%) | – | – | – | – | – | potent (Potent: 10^−6M inhibition rate≧75% or 10^−7M inhibition rate>50%) | inhibition at 100 µM [1, 3]: 100%; inhibition at 10 µM [1, 4]: 100%; inhibition at 1 µM [1, 5]: 100%; inhibition at 0.1 µM [1, 6]: 0%; inhibition at 0.01 µM [1, 7]: 0%; inhibition at 100 µM [2, 8]: 100%; inhibition at 10 µM [2, 9]: 100%; inhibition at 1 µM [2, 10]: 82%; inhibition at 0.1 µM [2, 11]: 0%; inhibition at 0.01 µM [2, 12]: 0% |
| CCN(CC)C(=O)/C(C)=C\CC12OC(C)(C)C3CC(C=C4C(=O)c5c(O)c(C/C=C(\C)CCC=C(C)C)c(O)c(CC=C(C)C)c5OC431)C2=O (stereo not shown) [diethylamide gambogenic acyl] | 100 | 100 | 100 | 23 | 0 | potent (Potent: 10^−6M inhibition rate≧75% or 10^−7M inhibition rate>50%) | 100 | 100 | 84 | 0 | 0 | potent (Potent: 10^−6M inhibition rate≧75% or 10^−7M inhibition rate>50%) | – |
| CCOC(=O)/C(C)=C\CC12OC(C)(C)C3CC(C=C4C(=O)c5c(O)c(C/C=C(\C)CCC=C(C)C)c(O)c(CC=C(C)C)c5OC431)C2=O (stereo not shown) [ethyl ester gambogenic acid] | 100 | 100 | 98 | 0 | 0 | potent (Potent: 10^−6M inhibition rate≧75% or 10^−7M inhibition rate>50%) | 100 | 100 | 96 | 0 | 0 | potent (Potent: 10^−6M inhibition rate≧75% or 10^−7M inhibition rate>50%) | – |
| CC(C)=CCC/C(C)=C/Cc1c(O)c(CC=C(C)C)c2c(c1O)C(=O)C1=CC3CC4C(C)(C)OC(C/C=C(/C)C(=O)O)(C3=O)C14O2 (stereo not shown) [gambogenic acid, Gambogenic acid] | – | – | – | – | – | invalid (Invalid: 10^−5M inhibition rate<85%) | – | – | – | – | – | invalid (Invalid: 10^−5M inhibition rate<85%) | inhibition at 0.01 µM ([1]; CAL-27, 72 h): 0%; inhibition at 0.1 µM ([1]; CAL-27, 72 h): 0%; inhibition at 1 µM ([1]; CAL-27, 72 h): 5%; inhibition at 10 µM ([1]; CAL-27, 72 h): 100%; inhibition at 100 µM ([1]; CAL-27, 72 h): 100%; inhibition at 0.01 µM ([2]; MCF7, 72 h): 0%; inhibition at 0.1 µM ([2]; MCF7, 72 h): 0%; inhibition at 1 µM ([2]; MCF7, 72 h): 0%; inhibition at 10 µM ([2]; MCF7, 72 h): 100%; inhibition at 100 µM ([2]; MCF7, 72 h): 100%; highest survival rate extended, relative to garcinia acid (mouse leukemia L1210): up to 2.45 times |
| CC(C)=CCC/C(C)=C/Cc1c(O)c(CC=C(C)C)c2c(c1O)C(=O)C1=CC3CC4C(C)(C)OC(C/C=C(/C)C(=O)N5CCOCC5)(C3=O)C14O2 (stereo not shown) [morpholine gambogenic acid] | 100 | 100 | 100 | 14 | 0 | potent (Potent: 10^−6M inhibition rate≧75% or 10^−7M inhibition rate>50%) | 100 | 100 | 78 | 14 | 0 | potent (Potent: 10^−6M inhibition rate≧75% or 10^−7M inhibition rate>50%) | – |
| CC(C)=CCC/C(C)=C/Cc1c(O)c(CC=C(C)C)c2c(c1O)C(=O)C1=CC3CC4C(C)(C)OC(C/C=C(/C)C(=O)N5CCCCC5)(C3=O)C14O2 (stereo not shown) [piperidine gambogenic acid] | 100 | 100 | 70 | 0 | 0 | invalid (Invalid: 10^−5M inhibition rate<85%) | 100 | 100 | 67 | 0 | 0 | invalid (Invalid: 10^−5M inhibition rate<85%) | – |
